Assay results from the NIST ThermoML archive (doi:10.1021/je101178u).
Where “and” joins values, the source holds several entries; their conditions need not be identical. Equal values may be shown once.

Conditions: Fluid (supercritical or subcritical phases); for mass density: Buoyancy - hydrostatic balance with magnetic suspension - one sinker; for viscosity: vibrating wire

CC [ethane]
Conditions	mass density, 293.15 K	mass density, 307.15 K [kg/m3]	viscosity, 293.15 K	viscosity, 307.15 K
64.37 kPa	0.79811 kg/m3	–	0.009075 mPa·s and 0.009074 mPa·s	–
80.37 kPa	0.99778 kg/m3	–	0.009076 mPa·s	–
80.42 kPa	0.99851 kg/m3	–	0.009075 mPa·s	–
80.48 kPa	0.99923 kg/m3	–	0.009073 mPa·s	–
92.55 kPa	–	1.0967	–	0.009492 mPa·s
92.62 kPa	–	1.0975	–	0.009489 mPa·s
97.81 kPa	–	1.1594	–	0.009507 mPa·s and 0.009508 mPa·s
160.1 kPa	2.0005 kg/m3	–	0.009083 mPa·s and 0.009082 mPa·s	–
160.16 kPa	2.0012 kg/m3	–	0.009082 mPa·s	–
160.18 kPa	–	1.907	–	0.00951 mPa·s and 0.009508 mPa·s
166.71 kPa	–	1.9856	–	0.009531 mPa·s
166.77 kPa	–	1.9863	–	0.009529 mPa·s
315.97 kPa	3.9991 kg/m3	–	0.009102 mPa·s	–
316.05 kPa	4.0002 kg/m3	–	0.009098 mPa·s and 0.009099 mPa·s	–
327.38 kPa	–	3.9439	–	0.009566 mPa·s
332.45 kPa	–	4.0065	–	0.009542 mPa·s and 0.009543 mPa·s
467.91 kPa	5.9992 kg/m3	–	0.009118 mPa·s	–
467.96 kPa	5.9999 kg/m3	–	0.009119 mPa·s	–
468.01 kPa	6.0006 kg/m3	–	0.009118 mPa·s	–
493.91 kPa	–	6.0228	–	0.009573 mPa·s
493.97 kPa	–	6.0235	–	0.009572 mPa·s
615.93 kPa	8.0004 kg/m3	–	0.009139 mPa·s and 0.009137 mPa·s	–
616.03 kPa	8.0018 kg/m3	–	0.009137 mPa·s	–
649.95 kPa	–	8.0188	–	0.009604 mPa·s
650.01 kPa	–	8.0195	–	0.009604 mPa·s
759.69 kPa	9.9972 kg/m3	–	0.009162 mPa·s and 0.009165 mPa·s	–
788.48 kPa	–	9.8322	–	0.009663 mPa·s
788.7 kPa	–	9.8351	–	0.009665 mPa·s
800.35 kPa	–	9.9895	–	0.009635 mPa·s
800.41 kPa	–	9.9903	–	0.009639 mPa·s and 0.009636 mPa·s
889.73 kPa	11.852 kg/m3	–	0.009183 mPa·s and 0.009184 mPa·s	–
889.87 kPa	11.854 kg/m3	–	0.009183 mPa·s	–
959.13 kPa	–	12.123	–	0.009675 mPa·s
959.2 kPa	–	12.124	–	0.009674 mPa·s
1036.2 kPa	14.001 kg/m3	–	0.009212 mPa·s and 0.009213 mPa·s	–
1036.3 kPa	14.002 kg/m3	–	0.009213 mPa·s	–
1094.4 kPa	–	13.987	–	0.009709 mPa·s
1094.5 kPa	–	13.988	–	0.00971 mPa·s
1167.2 kPa	15.979 kg/m3	–	0.009246 mPa·s	–
1167.3 kPa	15.98 kg/m3 and 15.981 kg/m3	–	0.009243 mPa·s	–
1233.8 kPa	–	15.953	–	0.009746 mPa·s
1233.9 kPa	–	15.955	–	0.009746 mPa·s
1293.6 kPa	17.943 kg/m3	–	0.009274 mPa·s	–
1293.8 kPa	17.946 kg/m3	–	0.009275 mPa·s	–
1343.4 kPa	–	17.536	–	0.009778 mPa·s
1420.8 kPa	19.979 kg/m3	–	0.009305 mPa·s and 0.009308 mPa·s	–
1421 kPa	19.983 kg/m3	–	0.00931 mPa·s	–
1469.3 kPa	–	19.394	–	0.009855 mPa·s
1469.5 kPa	–	19.396	–	0.009856 mPa·s
1502.4 kPa	–	19.889	–	0.00983 mPa·s and 0.009828 mPa·s
1992.4 kPa	30.002 kg/m3	–	0.009506 mPa·s	–
1992.5 kPa	30.004 kg/m3	–	0.009506 mPa·s	–
1992.6 kPa	30.006 kg/m3	–	0.009505 mPa·s	–
2477.2 kPa	40.017 kg/m3	–	0.009749 mPa·s	–
2477.4 kPa	40.022 kg/m3	–	0.009748 mPa·s	–
2477.6 kPa	40.026 kg/m3	–	0.009748 mPa·s	–
2879.7 kPa	49.983 kg/m3	–	0.01003 mPa·s	–
2879.9 kPa	49.988 kg/m3	–	0.01003 mPa·s	–
3212.1 kPa	60.071 kg/m3	–	0.01036 mPa·s	–
3212.2 kPa	60.073 kg/m3	–	0.01036 mPa·s	–
3212.3 kPa	60.079 kg/m3	–	0.01036 mPa·s	–
3471.9 kPa	70.014 kg/m3	–	0.01073 mPa·s	–
3472 kPa	70.02 kg/m3	–	0.01073 mPa·s	–
3472.2 kPa	70.027 kg/m3	–	0.01073 mPa·s	–
3577.6 kPa	74.947 kg/m3	–	0.01093 mPa·s	–
3577.8 kPa	74.957 kg/m3	–	0.01092 mPa·s	–
